Test results taken from patent US20080103162A1, “Antipruritics” (priority 2001, published 2008).

Columns and labels:
Type in all cases: in vivo
male ICR mice [1] = assay: spontaneous scratching behavior of mice with cutaneous barrier disruption (Test Example 4); conditions: 0.1% in 100% ethanol, applied (100 μl) in vicinity of shaved portion, before vs after application, FIG. 6
Description: The rostral back portion of 5 weeks-old male ICR mice was shaved under etherization, and then cutaneous barrier was disrupted by carrying out a treatment of applying a mixed solution of acetone and ether (1:1) to the shaved portion and applying distilled water twice a day every day (10 days). […] The compound was applied (100 μl) in the vicinity of the shaved portion.

male ICR mice [2] = assay: eye scratching behavior induced by instillation of serotonin (Test Example 3); conditions: instillation of 10 μl of compound five minutes before 10 μl of 1% serotonin hydrochloride in right eye, FIG. 5
Description: After the instillation of 10 μl of 1% serotonin hydrochloride (hereinafter referred to as serotonin) in the right eye of 4-6 weeks-old male ICR mice, the number of scratching behavior in the vicinity of the eye induced by the instillation of serotonin for 10 minutes. […] Five minutes before the instillation of serotonin, the instillation of 10 μl of the compound was performed. In a control group, the instillation of distilled water was performed.

male ddY mice = assay: compound 48/80-induced scratching behavior, intravenous administration (Test Example 1); conditions: intravenously administered five minutes before compound 48/80 (50 μg/0.1 ml, subcutaneous, back), FIG. 1 to FIG. 3
wild type mice = assay: compound 48/80-induced scratching behavior in wild type mice (Test Example 2); conditions: wild type mice (backcrossed with C57BL/6J); intravenous, five minutes before compound 48/80; FIG. 4(a)
[3] = tested on: nociceptine receptor defective mice; assay: compound 48/80-induced scratching behavior in nociceptine receptor defective mice (Test Example 2); conditions: intravenous, five minutes before compound 48/80, FIG. 4(b)

Row | SMILES | suppression of spontaneous scratching behavior induced by cutaneous barrier disruption (number of scratching behavior for 30 minutes) (male ICR mice [1]) | suppression of eye scratching behavior induced by instillation of serotonin (number of scratching behavior for 10 minutes) (male ICR mice [2]) | scratching behavior suppressing effect (number of scratching behavior for 30 minutes) (male ddY mice) | scratching behavior suppressing effect (number of scratching behavior for 30 minutes) (wild type mice) | scratching behavior suppressing effect (number of scratching behavior for 30 minutes) [3]
1 | Cc1ccc2nc(NC(=O)c3ccc(Cl)cc3)nc(N[C@H]3CCCC[C@H]3NC(=N)N)c2c1.Cl.Cl [compound D, (1R,2S)—N-amidino-2-{[2-(4-chlorobenzoylamino)-6-methylquinazolin-4-yl]amino}cyclohexylamine dihydrochloride] | strongly suppressed | strongly suppressed |  |  | 
2 | CCc1ccc(OCc2ccccc2C(=O)Nc2ccc3nc(C)cc(N)c3c2)cc1.Cl [compound C, N-(4-amino-2-methyl-6-quinolyl)-2-[(4-ethylphenoxy)methyl]benzamide hydrochloride, reference compound] |  |  | strong scratching behavior suppressing effect |  | 
3 | COc1ccc2nc(NC(=O)c3ccc(Cl)cc3)nc(N[C@H]3CCCC[C@H]3NC(=N)N)c2c1.Cl.Cl [compound A, (1R,2S)—N-amidino-2-[2-(4-chlorobenzoylamino)-6-methoxyquinazolin-4-yl]aminocyclohexylamine dihydrochloride] |  |  | strong scratching behavior suppressing effect | strong scratching behavior suppressing effect | completely disappeared
